Experimental data taken from the supplement of paper PMC11061612.

Assays:
Olaparib = compound: O=C(c1cc(Cc2n[nH]c(=O)c3ccccc23)ccc1F)N1CCN(C(=O)C2CC2)CC1 [Olaparib]; conditions: max 10 µM
In short: (§1)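 Cancer cell lines were dosed for 72 hours (final DMSO typically 0.2%) after 24 hours at 37°C and 5% CO2 in 1536-well plates containing 7.5 μl DMEM/F12 or RPMI with 10% FBS. Viability came from CellTiter-Glo 2.0 luminescence, scaled between blank-well and DMSO-well means, and dose responses were fitted to a two-parameter logistic curve with a non-linear mixed effects model. The single-agent IC50 was obtained from this fit.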

Selumetinib = compound: Cn1cnc2c(F)c(Nc3ccc(Br)cc3Cl)c(C(=O)NOCCO)cc21 [Selumetinib]; conditions: max 10 µM
In short: as §1

AZD2811 = compound: CCN(CCO)CCCOc1ccc2c(Nc3cc(CC(=O)Nc4cccc(F)c4)[nH]n3)ncnc2c1 [AZD2811]; conditions: max 1 µM
In short: as §1

SG3199 = compound: CC1=CN2[C@@H](C1)C=NC3=CC(=C(C=C3C2=O)OC)OCCCCCOC4=C(C=C5C(=C4)N=C[C@@H]6CC(=CN6C5=O)C)OC [SG3199]; conditions: max 0.001 µM
In short: as §1

Trametinib = compound: CC(=O)Nc1cccc(-n2c(=O)n(C3CC3)c(=O)c3c(Nc4ccc(I)cc4F)n(C)c(=O)c(C)c32)c1 [Trametinib]; conditions: max 1 µM
In short: as §1

Palbociclib = compound: CC(=O)c1c(C)c2cnc(Nc3ccc(N4CCNCC4)cn3)nc2n(C2CCCC2)c1=O [Palbociclib]; conditions: max 10 µM
In short: as §1

Doxorubicin = compound: COc1cccc2c1C(=O)c1c(O)c3c(c(O)c1C2=O)C[C@@](O)(C(=O)CO)C[C@@H]3O[C@H]1C[C@H](N)[C@H](O)[C@H](C)O1 [Doxorubicin]; conditions: max 1 µM
In short: as §1

Taselisib = compound: Cc1nc(-c2cn3c(n2)-c2ccc(-c4cnn(C(C)(C)C(N)=O)c4)cc2OCC3)n(C(C)C)n1 [Taselisib]; conditions: max 10 µM
In short: as §1

AZD6738 = compound: C[C@@H]1COCCN1C2=NC(=NC(=C2)C3(CC3)[S@](=N)(=O)C)C4=C5C=CNC5=NC=C4 [AZD6738]; conditions: max 10 µM
In short: as §1

AZD0156 = compound: CN(C)CCCOc1ccc(-c2ccc3ncc4c(c3c2)n(C2CCOCC2)c(=O)n4C)cn1 [AZD0156]; conditions: max 3 µM
In short: as §1

Prexasertib = compound: COc1cccc(OCCCN)c1-c1cc(Nc2cnc(C#N)cn2)n[nH]1 [Prexasertib]; conditions: max 1 µM
In short: as §1

Venetoclax = compound: CC1(C)CCC(CN2CCN(c3ccc(C(=O)NS(=O)(=O)c4ccc(NCC5CCOCC5)c([N+](=O)[O-])c4)c(Oc4cnc5[nH]ccc5c4)c3)CC2)=C(c2ccc(Cl)cc2)C1 [Venetoclax]; conditions: max 1 µM
In short: as §1

AZD4320 = compound: CN(CC[C@H](CSC1=CC=CC=C1)NC2=C(C=C(C=C2)S(=O)(=O)NC(=O)C3=CC=C(C=C3)N4CCC(CC4)[C@H](C5=CC=CC=C5C6=CC=C(C=C6)Cl)O)S(=O)(=O)C(F)(F)F)CCO [AZD4320]; conditions: max 1 µM
In short: as §1

AZD5991 = compound: Cc1c2c(nn1C)CSCc1cc(n(C)n1)CSc1cc(c3ccccc3c1)OCCCc1c(C(=O)O)n(C)c3c-2c(Cl)ccc13 [AZD5991]; conditions: max 1 µM
In short: as §1

SN-38 = compound: CCc1c2c(nc3ccc(O)cc13)-c1cc3c(c(=O)n1C2)COC(=O)[C@]3(O)CC [SN-38]; conditions: max 0.3 µM
In short: as §1

AZD1775 = compound: C=CCn1c(=O)c2cnc(Nc3ccc(N4CCN(C)CC4)cc3)nc2n1-c1cccc(C(C)(C)O)n1 [AZD1775]; conditions: max 3 µM
In short: as §1

Dasatinib = compound: CC1=C(C(=CC=C1)Cl)NC(=O)C2=CN=C(S2)NC3=CC(=NC(=N3)C)N4CCN(CC4)CCO [Dasatinib]; conditions: max 2 µM
In short: as §1

Alisertib = compound: COc1cc(Nc2ncc3c(n2)-c2ccc(Cl)cc2C(c2c(F)cccc2OC)=NC3)ccc1C(=O)O [Alisertib]; conditions: max 10 µM
In short: as §1

AZD1390 = compound: CC(C)n1c(=O)n(C)c2cnc3cc(F)c(-c4ccc(OCCCN5CCCCC5)nc4)cc3c21 [AZD1390]; conditions: max 0.3 µM
In short: as §1

Crizotinib = compound: C[C@@H](Oc1cc(-c2cnn(C3CCNCC3)c2)cnc1N)c1c(Cl)ccc(F)c1Cl [Crizotinib]; conditions: max 10 µM
In short: as §1

AZD5153 = compound: COc1nnc2ccc(N3CCC(c4ccc(OCCN5CCN(C)C(=O)[C@H]5C)cc4)CC3)nn12 [AZD5153]; conditions: max 1 µM
In short: as §1

Capivasertib = compound: C1CN(CCC1(C(=O)N[C@@H](CCO)C2=CC=C(C=C2)Cl)N)C3=NC=NC4=C3C=CN4 [Capivasertib]; conditions: max 10 µM
In short: as §1

Savolitinib = compound: C[C@@H](c1ccc2nccn2c1)n1nnc2ncc(-c3cnn(C)c3)nc21 [Savolitinib]; conditions: max 1 µM
In short: as §1

AZD7648 = compound: Cc1cc2ncnn2cc1Nc1ncc2c(n1)n(C1CCOCC1)c(=O)n2C [AZD7648]; conditions: max 10 µM
In short: as §1

AZD8186 = compound: C[C@@H](Nc1cc(F)cc(F)c1)c1cc(C(=O)N(C)C)cc2c(=O)cc(N3CCOCC3)oc12 [AZD8186]; conditions: max 3 µM
In short: as §1

Gefitinib = compound: COc1cc2ncnc(Nc3ccc(F)c(Cl)c3)c2cc1OCCCN1CCOCC1 [Gefitinib]; conditions: max 10 µM
In short: as §1

Lapatinib = compound: CS(=O)(=O)CCNCc1ccc(-c2ccc3ncnc(Nc4ccc(OCc5cccc(F)c5)c(Cl)c4)c3c2)o1 [Lapatinib]; conditions: max 10 µM
In short: as §1

MK-2206 = compound: NC1(c2ccc(-c3nc4ccn5c(=O)[nH]nc5c4cc3-c3ccccc3)cc2)CCC1 [MK-2206]; conditions: max 10 µM
In short: as §1

Cell Line	IC50, cell viability 72 h (Olaparib)	IC50, cell viability 72 h (Selumetinib)	IC50, cell viability 72 h (AZD2811)	IC50, cell viability 72 h (SG3199)	IC50, cell viability 72 h (Trametinib)	IC50, cell viability 72 h (Palbociclib)	IC50, cell viability 72 h (Doxorubicin)	IC50, cell viability 72 h (Taselisib)	IC50, cell viability 72 h (AZD6738)	IC50, cell viability 72 h (AZD0156)	IC50, cell viability 72 h (Prexasertib)	IC50, cell viability 72 h (Venetoclax)	IC50, cell viability 72 h (AZD4320)	IC50, cell viability 72 h (AZD5991)	IC50, cell viability 72 h (SN-38)	IC50, cell viability 72 h (AZD1775)	IC50, cell viability 72 h (Dasatinib)	IC50, cell viability 72 h (Alisertib)	IC50, cell viability 72 h (AZD1390)	IC50, cell viability 72 h (Crizotinib)	IC50, cell viability 72 h (AZD5153)	IC50, cell viability 72 h (Capivasertib)	IC50, cell viability 72 h (Savolitinib)	IC50, cell viability 72 h (AZD7648)	IC50, cell viability 72 h (AZD8186)	IC50, cell viability 72 h (Gefitinib)	IC50, cell viability 72 h (Lapatinib)	IC50, cell viability 72 h (MK-2206)
NEC8 (Other Solid Carcinomas)	> 10 µM	> 10 µM	> 1000 nM	> 1 nM	> 1000 nM	> 10 µM	595 nM	> 10 µM	5.76 µM	> 3000 nM	35.7 nM	> 1000 nM	> 1000 nM	> 1000 nM	21.5 nM	558 nM	> 2000 nM	> 10 µM	> 300 nM	> 10 µM	226 nM	> 10 µM	> 1000 nM	> 10 µM	> 3000 nM	> 10 µM	> 10 µM	–
NUGC-3 (Gastric Carcinoma)	> 10 µM	> 10 µM	> 1000 nM	> 1 nM	592 nM	> 10 µM	128 nM	3.75 µM	6.49 µM	> 3000 nM	193 nM	> 1000 nM	> 1000 nM	> 1000 nM	5.05 nM	729 nM	> 2000 nM	> 10 µM	> 300 nM	> 10 µM	> 1000 nM	> 10 µM	> 1000 nM	> 10 µM	> 3000 nM	> 10 µM	5.31 µM	> 10 µM
OE19 (Esophageal Adenocarcinoma)	> 10 µM	> 10 µM	390 nM	> 1 nM	> 1000 nM	> 10 µM	> 1000 nM	2.18 µM	4.05 µM	> 3000 nM	105 nM	> 1000 nM	> 1000 nM	> 1000 nM	> 300 nM	> 3000 nM	> 2000 nM	0.167 µM	> 300 nM	3.81 µM	907 nM	> 10 µM	> 1000 nM	> 10 µM	> 3000 nM	1.36 µM	0.287 µM	–
